Consider 22 compounds from patent publication US20240254118A1, “PRMT5 INHIBITORS AND USES THEREOF” (Gilead Sciences, Inc., priority 2022, published 2024).

Experiment [1] has as its system HCT116 MTAP-deleted cells. Description: Cell viability assay (CellTiter-Glo, 7 days), HCT116 MTAP-deleted. The note with it: Homo sapiens, HCT-116, 168 h. On the technique in general: Cellular ATP, detected with luciferase, serves as a proxy for viable cell number.
In experiment [2] the test system is SDMA signal (PRMT5 inhibition) in HCT116 MTAP-deleted cells. Description: Symmetric di-methyl arginine image-based high content screen assay (SDMA assay), HCT116 MTAP-deleted. In kind it is cell-based. Conditions: SDMA assay; for EC50: Homo sapiens, HCT-116, 72 h, 3 days of treatment, cell line not given, taken as HCT116 MTAP-deleted, read-out: EC50 (SDMA assay); for EC50 selectivity (SDMA assay): taken as HCT116 WT versus MTAP-deleted. Put shortly:
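HCT116 MTAP-deleted cells treated with compound until Day 3, then formalin-fixed, permeabilized and immunostained for SDMA, with DAPI nuclear counterstain. Imaged by high-content microscopy; SDMA read-out is mean Alexa 488 intensity per DAPI-defined cell, reflecting PRMT5 inhibition.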

By CC50 is commonly meant the concentration at which the toxic effect on the cells reaches its halfway point. The low end stands for harm at low concentration, the high end for better tolerance by the cells. The EC50 is the concentration giving half of the maximal effect. For the compound `Cn1c(CN(C(=O)c2ccc3nc(N)c4ccccc4c3c2)N2CCCC2=O)nc2ccccc21` [Example 79, 6-Amino-N-[(1-methylbenzimidazol-2-yl)methyl]-N-(2-oxopyrrolidin-1-yl) phenanthridine-2-carboxamide], in experiment [1], the CC50 lay in the range of 100 to 1000 nM. For the same compound, in experiment [2], the EC50 was 1 to 5 nM and the “EC50 selectivity (SDMA assay)” value came out at 406.

For the compound `Cn1ncc2c(N)nc3ccc(C(=O)N(Cc4nc5ccccc5n4C)N4CCCC4=O)cc3c21` [Example 80, 4-Amino-1-methyl-N-[(1-methylbenzimidazol-2-yl)methyl]-N-(2-oxopyrrolidin-1-yl)pyrazolo[4,3-c]quinoline-8-carboxamide], the CC50 in experiment [1] is under 100 nM. Besides, in experiment [2], the EC50 was under 1 nM and the “EC50 selectivity (SDMA assay)” value came out at 164.

With `Cn1c(CN(C(=O)c2ccc3nc(N)c4c(c3c2)COC4)N2CCCC2=O)nc2ccccc21` [Example 81, 4-Amino-N-[(1-methylbenzimidazol-2-yl)methyl]-N-(2-oxopyrrolidin-1-yl)-1,3-dihydrofuro[3,4-c]quinoline-8-carboxamide], in experiment [1], the CC50 was under 100 nM. Further, in experiment [2], the EC50 lay in the range of 1 to 5 nM and the “EC50 selectivity (SDMA assay)” value was determined as 101.

The compound `CCn1c(CN(C(=O)c2ccc3nc(N)c4cnn(C)c4c3c2)N2CCCC2=O)nc2ccccc21` [Example 83, 4-Amino-N-[(1-ethylbenzimidazol-2-yl)methyl]-1-methyl-N-(2-oxopyrrolidin-1-yl)pyrazolo[4,3-c]quinoline-8-carboxamide] registered a 50% cytotoxic concentration (CC50) in experiment [1] of 100 to 1000 nM. Also, in experiment [2], the EC50 is 1 to 5 nM and the “EC50 selectivity (SDMA assay)” value came out at 242.

Take `CN1CCN(N(Cc2ccc(C(F)(F)F)cn2)C(=O)c2cc3c(cc2Cl)nc(N)c2cnn(C)c23)C1=O` [Example 84, 4-Amino-7-chloro-1-methyl-N-(3-methyl-2-oxo-imidazolidin-1-yl)-N-[[5-(trifluoromethyl)-2-pyridyl]methyl]pyrazolo[4,3-c]quinoline-8-carboxamide]: the CC50 in experiment [1] is under 100 nM. In experiment [2], the EC50 is 1 to 5 nM and the “EC50 selectivity (SDMA assay)” value is 26.

Regarding `Cn1ncc2c(N)nc3ccc(C(=O)N(Cc4nc5ccc(F)cc5s4)N4CCCC4=O)cc3c21` [Example 85, 4-Amino-N-[(6-fluoro-1,3-benzothiazol-2-yl)methyl]-1-methyl-N-(2-oxopyrrolidin-1-yl)pyrazolo[4,3-c]quinoline-8-carboxamide], the CC50 in experiment [1] is under 100 nM. Moreover, in experiment [2], the EC50 was under 1 nM and the “EC50 selectivity (SDMA assay)” value is 48.

In experiment [1], `CC(=O)N(C)N(Cc1nc2ccc(F)cc2s1)C(=O)c1ccc2nc(N)c3cnn(C)c3c2c1` [Example 86, N′-Acetyl-4-amino-N-[(6-fluoro-1,3-benzothiazol-2-yl)methyl]-N′, 1-dimethyl-pyrazolo[4,3-c]quinoline-8-carbohydrazide] displayed a CC50 of under 100 nM. Moreover, in experiment [2], the EC50 is under 1 nM and the “EC50 selectivity (SDMA assay)” value stood at 92.

On to `CC(=O)N(C)N(Cc1nc2cc(C(F)(F)F)ccc2s1)C(=O)c1cc2c(cc1Cl)nc(N)c1cnn(C)c12` [Example 87, N′-Acetyl-4-amino-7-chloro-N′,1-dimethyl-N-[[5-(trifluoromethyl)-1,3-benzothiazol-2-yl]methyl]pyrazolo[4,3-c]quinoline-8-carbohydrazide], for which the cytotoxic concentration (CC50) in experiment [1] fell in the range of 100 to 1000 nM. Besides, in experiment [2], the EC50 lay within 1 to 5 nM and the “EC50 selectivity (SDMA assay)” value is 104.

Turning to `Cn1ncc2c(N)nc3ccc(C(=O)N(Cc4cn5cc(C#N)ccc5n4)N4CCCC4=O)cc3c21` [Example 88, 4-Amino-N-[(6-cyanoimidazo[1,2-a]pyridin-2-yl)methyl]-1-methyl-N-(2-oxopyrrolidin-1-yl)pyrazolo[4,3-c]quinoline-8-carboxamide], the CC50 in experiment [1] was in the range of 100 to 1000 nM. In addition, in experiment [2], the EC50 was over 5 nM and the “EC50 selectivity (SDMA assay)” value turned out to be 221.

For the compound `Cn1ncc2c(N)nc3ccc(C(=O)N(Cc4nc5cc(C(F)(F)F)ccc5s4)N4CCOC4=O)cc3c21` [Example 89, 4-Amino-1-methyl-N-(2-oxooxazolidin-3-yl)-N-[[5-(trifluoromethyl)-1,3-benzothiazol-2-yl]methyl]pyrazolo[4,3-c]quinoline-8-carboxamide], the CC50 in experiment [1] was under 100 nM. In addition, in experiment [2], the EC50 was under 1 nM and the “EC50 selectivity (SDMA assay)” value came to 204.

As for `Cn1ncc2c(N)nc3ccc(C(=O)N(Cc4cn5cc(F)ccc5n4)N4CCCCC4=O)cc3c21` [Example 90, 4-Amino-N-[(6-fluoroimidazo[1,2-a]pyridin-2-yl)methyl]-1-methyl-N-(2-oxo-1-piperidyl)pyrazolo[4,3-c]quinoline-8-carboxamide], the CC50 in experiment [1] is under 100 nM. For the same compound, in experiment [2], the EC50 is 1 to 5 nM and the “EC50 selectivity (SDMA assay)” value is 53.

Consider `CCC(=O)N(C)N(Cc1cn2cc(F)ccc2n1)C(=O)c1ccc2nc(N)c3cnn(C)c3c2c1` [Example 91, 4-Amino-N-[(6-fluoroimidazo[1,2-a]pyridin-2-yl)methyl]-N′,1-dimethyl-N′-propanoyl-pyrazolo[4,3-c]quinoline-8-carbohydrazide], for which the cytotoxic concentration (CC50) in experiment [1] was under 100 nM. In experiment [2], the EC50 is 1 to 5 nM and the “EC50 selectivity (SDMA assay)” value is reported as 143.

In the case of `CC(=O)N(C)N(Cc1nc2cc(F)ccc2s1)C(=O)c1ccc2nc(N)c3cnn(C)c3c2c1` [Example 92, N′-Acetyl-4-amino-N-[(5-fluoro-1,3-benzothiazol-2-yl)methyl]-N′,1-dimethyl-pyrazolo[4,3-c]quinoline-8-carbohydrazide], the CC50 in experiment [1] is under 100 nM. In experiment [2], the EC50 was under 1 nM and the “EC50 selectivity (SDMA assay)” value stood at 257.

For the compound `Cn1ncc2c(N)nc3ccc(C(=O)N(Cc4nc5cc(Cl)ccc5s4)N4CCCCC4=O)cc3c21` [Example 93, 4-amino-N-[(5-chloro-1,3-benzothiazol-2-yl)methyl]-1-methyl-N-(2-oxo-1-piperidyl)pyrazolo[4,3-c]quinoline-8-carboxamide], in experiment [1], the CC50 was under 100 nM. In experiment [2], the EC50 was under 1 nM and the “EC50 selectivity (SDMA assay)” value amounted to 226.

`Cn1ncc2c(N)nc3ccc(C(=O)N(Cc4cc5ccccn5n4)N4CCCCC4=O)cc3c21` [Example 94, 4-amino-1-methyl-N-(2-oxo-1-piperidyl)-N-(pyrazolo[1,5-a]pyridin-2-ylmethyl)pyrazolo[4,3-c]quinoline-8-carboxamide]: in experiment [1], the CC50 was under 100 nM. In experiment [2], the EC50 was under 1 nM and the “EC50 selectivity (SDMA assay)” value stood at 133.

In experiment [1], `Cn1ncc2c(N)nc3ccc(C(=O)N(Cc4ccc5nsnc5c4)N4CCCC4=O)cc3c21` [Example 95, 4-amino-N-(2,1,3-benzothiadiazol-5-ylmethyl)-1-methyl-N-(2-oxopyrrolidin-1-yl)pyrazolo[4,3-c]quinoline-8-carboxamide] came in with a CC50 of under 100 nM. For the same compound, in experiment [2], the half-maximal effective concentration (EC50) was under 1 nM and the “EC50 selectivity (SDMA assay)” value was 205.

`CC(=O)N(C)N(Cc1ccc2nsnc2c1)C(=O)c1ccc2nc(N)c3cnn(C)c3c2c1` [Example 96, N′-acetyl-4-amino-N-(2,1,3-benzothiadiazol-5-ylmethyl)-N′,1-dimethyl-pyrazolo[4,3-c]quinoline-8-carbohydrazide] showed a CC50 in experiment [1] of under 100 nM. In experiment [2], the EC50 was in the range of 1 to 5 nM and the “EC50 selectivity (SDMA assay)” value is 290.

For the compound `CC(=O)N(C)N(Cc1nc2cc(Cl)ccc2o1)C(=O)c1ccc2nc(N)c3cnn(C)c3c2c1` [Example 97, N′-acetyl-4-amino-N-((5-chlorobenzo[d]oxazol-2-yl)methyl)-N′,1-dimethyl-1H-pyrazolo[4,3-c]quinoline-8-carbohydrazide], in experiment [1], the CC50 was under 100 nM. In experiment [2], the EC50 is 1 to 5 nM and the “EC50 selectivity (SDMA assay)” value came to 98.

In the case of `CC(=O)N(C)N(Cc1ccc(C2CC2)cc1)C(=O)c1ccc2nc(N)c3cnn(C)c3c2c1` [Example 98, N′-acetyl-4-amino-N-(4-cyclopropylbenzyl)-N′,1-dimethyl-1H-pyrazolo[4,3-c]quinoline-8-carbohydrazide], the CC50 in experiment [1] is under 100 nM. Besides, in experiment [2], the EC50 is under 1 nM and the “EC50 selectivity (SDMA assay)” value came out at 120.

In turn, `CN(C(=O)C1CC(F)(F)C1)N(Cc1ccc(C(F)(F)F)cn1)C(=O)c1ccc2nc(N)c3cnn(C)c3c2c1` [Example 99, 4-amino-N′-(3,3-difluorocyclobutane-1-carbonyl)-N′,1-dimethyl-N-((5-(trifluoromethyl)pyridin-2-yl)methyl)-1H-pyrazolo[4,3-c]quinoline-8-carbohydrazide] gave a CC50 in experiment [1] of under 100 nM. In addition, in experiment [2], the EC50 lay within 1 to 5 nM and the “EC50 selectivity (SDMA assay)” value was found to be 269.

In turn, `CN(C(=O)c1ncco1)N(Cc1ccc(C(F)(F)F)cn1)C(=O)c1ccc2nc(N)c3cnn(C)c3c2c1` [Example 100, N′-(4-amino-1-methyl-1H-pyrazolo[4,3-c]quinoline-8-carbonyl)-N-methyl-N′-((5-(trifluoromethyl)pyridin-2-yl)methyl)oxazole-2-carbohydrazide] showed a CC50 in experiment [1] of under 100 nM. In addition, in experiment [2], the EC50 was under 1 nM and the “EC50 selectivity (SDMA assay)” value worked out at 7.

In experiment [1], `CN(C(=O)C12CC(C1)C2)N(Cc1ccc(C(F)(F)F)cn1)C(=O)c1ccc2nc(N)c3cnn(C)c3c2c1` [Example 101, 4-amino-N′-(bicyclo[1.1.1]pentane-1-carbonyl)-N′,1-dimethyl-N-[[5-(trifluoromethyl)-2-pyridyl]methyl]pyrazolo[4,3-c]quinoline-8-carbohydrazide] had a 50% cytotoxic concentration (CC50) of under 100 nM. In experiment [2], the half-maximal effective concentration (EC50) lay in the range of 1 to 5 nM and the “EC50 selectivity (SDMA assay)” value is 108.
